Test results from patent publication US12171775B2, “Use of cladribine for treating autoimmune neuromuscular disease” (priority 2017, dated 2024).

Legend:
[1] = tested on: patient with acetylcholine receptor antibody positive myasthenia gravis; experiment: Treatment of a person suffering from myasthenia gravis with cladribine (single patient; clinical rating scales and tolerability); assay type: in vivo, human
Protocol: A patient with existing, acetylcholine receptor antibody positive myasthenia gravis (MG) diagnosed.
They received 20 mg cladribine, administered by subcutaneous injection of 2.5 mg cladribine in 2.5 ml in each of four limbs (total 10 mg), on each of two consecutive days. This total dose of 20 mg is markedly less than the total doses of 200-400 mg given in recent multiple sclerosis trials. Clinical assessment using two scales was performed one week before initiation of cladribine administration, and three months after first cladribine administration. The treatment with oral steroids and pyridostigmine remained stable over observation period.
The two scales used were:
• Myasthenia Gravis Composite Scale (Burns T et al. Neurology 74:1434-40 (2010) • Myasthenia Gravis Activities of Daily Living (Wolfe G et al. Neurology 52: 1487-89 (1999)

[2] = target: A2A (adenosine receptor class 2a) (Homo sapiens, UniProt P29274); details: cited from earlier work
Sequence of A2A (adenosine receptor class 2a) (P29274 whole entry): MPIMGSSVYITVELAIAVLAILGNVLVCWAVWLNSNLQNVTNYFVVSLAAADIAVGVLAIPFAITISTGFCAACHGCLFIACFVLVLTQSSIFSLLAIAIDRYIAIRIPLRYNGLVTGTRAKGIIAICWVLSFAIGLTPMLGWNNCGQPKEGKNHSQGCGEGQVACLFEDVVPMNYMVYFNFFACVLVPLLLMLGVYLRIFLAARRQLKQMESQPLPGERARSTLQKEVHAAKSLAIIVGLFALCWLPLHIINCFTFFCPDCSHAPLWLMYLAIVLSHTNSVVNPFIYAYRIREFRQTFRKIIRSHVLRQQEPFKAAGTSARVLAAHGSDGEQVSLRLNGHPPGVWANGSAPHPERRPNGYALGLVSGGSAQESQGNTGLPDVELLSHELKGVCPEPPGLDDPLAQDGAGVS

human lymphocytes = details: phosphorylation by CK blocked, lymphocyte death does not occur; cited from earlier work
[3] = tested on: multiple sclerosis (MS) patients; details: 3.5 mg/kg and 5.25 mg/kg by oral tablets; cited from earlier work
[4] = tested on: patient with IgM associated inflammatory peripheral neuropathy; details: intravenous, approximately 100 mg cumulative dose; cited from earlier work
[5] = 3 months post vs pre-cladribine

Cn1cnc([N+](=O)[O-])c1Sc1ncnc2nc[nH]c12 [azathioprine]
Tolerability of prior azathioprine treatment ([1]; same MG patient, before cladribine, stopped after 1 week of treatment): severe intolerance due to nausea and vomiting

Nc1nc(Cl)nc2c1ncn2[C@H]1C[C@H](O)[C@@H](CO)O1 [cladribine, 2-chloro-2′-deoxyadenosine]
MG Composite Scale score, 3 months post-cladribine ([1]; 20 mg total s.c. (10 mg on each of two consecutive days), 3 months after first administration, pre-cladribine score 31): 6 | MG Activities of Daily Living score, 3 months post-cladribine ([1]; 20 mg total s.c., 3 months after first administration, pre-cladribine score 19): 8 | Adverse events considered possible side effects of cladribine ([1]; 20 mg total s.c., MG patient): did not experience any adverse events | Transient worsening of signs after treatment initiation ([1]; 20 mg total s.c., MG patient): did not produce a transient worsening of signs | Improvement on the MG Activities of Daily Living scale [1, 5]: 11 point | Improvement on the MG Composite Scale [1, 5]: 25 point | Durability of clinical improvement after the 3 month assessment ([1]; MG patient, led to gradual withdrawal of baseline treatment): sustained over the following seven months | Period of beneficial effects on the disease without frequent retreatment ([1]; after a short period of treatment): over 10 months | Affinity at A2A receptors [2]: high affinity | Induced cytokine production (human lymphocytes): decreased | Clinical outcome in MS (relapses, disability, MRI disease activity) [3]: fewer relapses, less disability, and less disease activity | Clinical outcome in IgM associated inflammatory peripheral neuropathy [4]: symptomatic improvement and reduced levels of pathogenic antibodies
